# Patent US9062071B2, “Substituted piperidines as HDM2 inhibitors” (Merck Sharp & Dohme Corp, priority 2011, dated 2015)
# Molecular target: HDM2 protein (Homo sapiens, UniProt Q00987)
# Experiment: fluorescence polarization screening assay (FP IC50)
# Format: binding
# Details: class symbols
# Description: The compounds were evaluated to determine activity at the HDM2 protein by known methods such as the fluorescence polarization screening assay that measures the inhibitory concentration that achieves 50% of maximal activity (FP IC50) and the dissociation constant for inhibitor binding (FP Ki). [Zhang et al., J. Analytical Biochemistry 331: 138-146 (2004)].
# HDM2 protein, sequence (Q00987 whole entry): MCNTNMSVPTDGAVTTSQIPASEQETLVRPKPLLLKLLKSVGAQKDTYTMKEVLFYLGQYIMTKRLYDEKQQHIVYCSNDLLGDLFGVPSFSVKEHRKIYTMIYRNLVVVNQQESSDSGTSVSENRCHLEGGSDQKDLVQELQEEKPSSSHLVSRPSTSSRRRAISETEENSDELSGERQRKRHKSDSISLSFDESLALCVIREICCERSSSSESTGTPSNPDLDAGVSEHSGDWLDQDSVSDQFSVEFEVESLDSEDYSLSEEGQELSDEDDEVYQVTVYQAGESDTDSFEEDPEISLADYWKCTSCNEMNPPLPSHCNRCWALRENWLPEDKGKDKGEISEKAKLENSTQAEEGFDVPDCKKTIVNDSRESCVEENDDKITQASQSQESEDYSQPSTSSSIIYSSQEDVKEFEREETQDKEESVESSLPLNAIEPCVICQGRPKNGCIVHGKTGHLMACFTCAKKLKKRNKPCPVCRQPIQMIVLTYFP
row,IC50 [nM],Structure (SMILES)
1,1 to 100,"CCC[C@H]1N(C(=O)c2ncccc2C(F)(F)F)CCC[C@@]1(Oc1csc(C(F)(F)F)c1)C(=O)N1CCc2cc(F)ccc2C1C(=O)O (stereo partly drawn) [Compound A101, 6-fluoro-2-{[(2R,3S)-2-propyl-1-{[3-(trifluoromethyl)pyridin-2-yl]carbonyl}-3-{[5-(trifluoromethyl)thiophen-3-yl]oxy}piperidin-3-yl]carbonyl}-1,2,3,4-tetrahydroisoquinoline-1-carboxylic acid]"
2,1 to 100,"CCC[C@H]1N(C(=O)c2ncccc2C(F)(F)F)CCC[C@@]1(Oc1csc(C(F)(F)F)c1)C(=O)N1CCc2cc(Cl)ccc2C1C(=O)O (stereo partly drawn) [Compound A102, 6-chloro-2-{[(2R,3S)-2-propyl-1-{[3-(trifluoromethyl)pyridin-2-yl]carbonyl}-3-{[5-(trifluoromethyl)thiophen-3-yl]oxy}piperidin-3-yl]carbonyl}-1,2,3,4-tetrahydroisoquinoline-1-carboxylic acid]"
3,101 to 20000,"CCC[C@H]1N(C(=O)c2ncccc2C(F)(F)F)CCC[C@@]1(Oc1csc(C(F)(F)F)c1)C(=O)N1CCc2cc(Cl)ccc2C1CO (stereo partly drawn) [Compound A103, (6-chloro-2-{[(2R,3S)-2-propyl-1-{[3-(trifluoromethyl)pyridin-2-yl]carbonyl}-3-{[5-(trifluoromethyl)thiophen-3-yl]oxy}piperidin-3-yl]carbonyl}-1,2,3,4-tetrahydroisoquinolin-1-yl)methanol]"
4,1 to 100,"CCC[C@H]1N(C(=O)c2ncccc2C(F)(F)F)CCC[C@@]1(Oc1csc(C(F)(F)F)c1)C(=O)N1CCc2cc(F)ccc2C1C(=O)O (stereo partly drawn) [Compound A104, 6-fluoro-2-{[(2R,3S)-2-propyl-1-{[3-(trifluoromethyl)pyridin-2-yl]carbonyl}-3-{[5-(trifluoromethyl)thiophen-3-yl]oxy}piperidin-3-yl]carbonyl}-1,2,3,4-tetrahydroisoquinoline-1-carboxylic acid]"
5,101 to 20000,"CCC[C@H]1N(C(=O)c2ncccc2C(F)(F)F)CCC[C@@]1(Oc1csc(C(F)(F)F)c1)C(=O)N1CCc2cc(Cl)ccc2C1CO (stereo partly drawn) [Compound A105, (6-chloro-2-{[(2R,3S)-2-propyl-1-{[3-(trifluoromethyl)pyridin-2-yl]carbonyl}-3-{[5-(trifluoromethyl)thiophen-3-yl]oxy}piperidin-3-yl]carbonyl}-1,2,3,4-tetrahydroisoquinolin-1-yl)methanol]"
6,1 to 100,"CCC[C@H]1N(C(=O)c2ncccc2C(F)(F)F)CCC[C@@]1(Oc1csc(C(F)(F)F)c1)C(=O)N1CCc2cc(Cl)ccc2C1COC (stereo partly drawn) [Compound A106, 6-chloro-1-(methoxymethyl)-2-{[(2R,3S)-2-propyl-1-{[3-(trifluoromethyl)pyridin-2-yl]carbonyl}-3-{[5-(trifluoromethyl)thiophen-3-yl]oxy}piperidin-3-yl]carbonyl}-1,2,3,4-tetrahydroisoquinoline]"
7,101 to 20000,"CCC[C@H]1N(C(=O)c2ncccc2C(F)(F)F)CCC[C@@]1(Oc1csc(C(F)(F)F)c1)C(=O)N1CCc2cc(Cl)ccc2C1COC (stereo partly drawn) [Compound A107, 6-chloro-1-(methoxymethyl)-2-{[(2R,3S)-2-propyl-1-{[3-(trifluoromethyl)pyridin-2-yl]carbonyl}-3-{[5-(trifluoromethyl)thiophen-3-yl]oxy}piperidin-3-yl]carbonyl}-1,2,3,4-tetrahydroisoquinoline]"
8,1 to 100,"CCC[C@H]1N(C(=O)c2ncccc2C(F)(F)F)CCC[C@@]1(Oc1csc(C(F)(F)F)c1)C(=O)N1CCc2cc(Cl)ccc2C1CC(C)(C)C(=O)O (stereo partly drawn) [Compound A108, 3-(6-chloro-2-{[(2R,3S)-2-propyl-1-{[3-(trifluoromethyl)pyridin-2-yl]carbonyl}-3-{[5-(trifluoromethyl)thiophen-3-yl]oxy}piperidin-3-yl]carbonyl}-1,2,3,4-tetrahydroisoquinolin-1-yl)-2,2-dimethylpropanoic acid]"
9,1 to 100,"CCC[C@H]1N(C(=O)c2ncccc2C(F)(F)F)CCC[C@@]1(Oc1csc(C(F)(F)F)c1)C(=O)N1CCc2cc(Cl)ccc2C1(CCO)C(N)=O (stereo partly drawn) [Compound A109, 6-chloro-1-(2-hydroxyethyl)-2-{[(2R,3S)-2-propyl-1-{[3-(trifluoromethyl)pyridin-2-yl]carbonyl}-3-{[5-(trifluoromethyl)thiophen-3-yl]oxy}piperidin-3-yl]carbonyl}-1,2,3,4-tetrahydroisoquinoline-1-carboxamide]"
10,101 to 20000,"CCCC1N(C(=O)c2ncccc2C(F)(F)F)CCCC1(Oc1ccc(OC(F)(F)F)cc1)C(=O)N1CCc2cc(F)ccc2C1 (stereo not drawn) [Compound A110, 6-fluoro-2-[(2-propyl-3-[4-(trifluoromethoxy)phenoxy]-1-{[3-(trifluoromethyl)pyridin-2-yl]carbonyl}piperidin-3-yl)carbonyl]-1,2,3,4-tetrahydroisoquinoline]"
11,1 to 100,CCC[C@H]1N(C(=O)c2ncccc2C(F)(F)F)CCC[C@@]1(Oc1ccc(OC(F)(F)F)cc1)C(=O)N1CCc2cc(Cl)ccc2[C@@H]1CCC(=O)O [Compound A111]
12,1 to 100,"O=C(c1ncccc1C(F)(F)F)N1CCC[C@@](Oc2csc(C(F)(F)F)c2)(C(=O)N2CCc3cc(Cl)ccc3C2)[C@H]1CCNC1CCOCC1 [Compound A112, N-{2-[(2R,3S)-3-[(6-chloro-3,4-dihydroisoquinolin-2(1H)-yl)carbonyl]-1-{[3-(trifluoromethyl)pyridin-2-yl]carbonyl}-3-{[5-(trifluoromethyl)thiophen-3-yl]oxy}piperidin-2-yl]ethyl}tetrahydro-2H-pyran-4-amine]"
13,1 to 100,"C=CC[C@H]1N(C(=O)c2ncccc2C(F)(F)F)CCC[C@@]1(Oc1csc(C(F)(F)F)c1)C(=O)N1CCc2cc(Cl)ccc2C1C(=O)O (stereo partly drawn) [Compound A113, 6-chloro-2-{[(2R,3S)-2-prop-2-en-1-yl-1-{[3-(trifluoromethyl)pyridin-2-yl]carbonyl}-3-{[5-(trifluoromethyl)thiophen-3-yl]oxy}piperidin-3-yl]carbonyl}-1,2,3,4-tetrahydroisoquinoline-1-carboxylic acid]"
14,1 to 100,"CCN1CCN(CC[C@H]2N(C(=O)c3ncccc3C(F)(F)F)CCC[C@@]2(Oc2csc(C(F)(F)F)c2)C(=O)N2CCc3cc(Cl)ccc3C2)CC1 [Compound A114, 6-chloro-2-{[(2R,3S)-2-[2-(4-ethylpiperazin-1-yl)ethyl]-1-{[3-(trifluoromethyl)pyridin-2-yl]carbonyl}-3-{[5-(trifluoromethyl)thiophen-3-yl]oxy}piperidin-3-yl]carbonyl}-1,2,3,4-tetrahydroisoquinoline]"
15,1 to 100,"CN1CCN(CC[C@H]2N(C(=O)c3ncccc3C(F)(F)F)CCC[C@@]2(Oc2csc(C(F)(F)F)c2)C(=O)N2CCc3cc(Cl)ccc3C2)CC1 [Compound A115, 6-chloro-2-{[(2R,3S)-2-[2-(4-methylpiperazin-1-yl)ethyl]-1-{[3-(trifluoromethyl)pyridin-2-yl]carbonyl}-3-{[5-(trifluoromethyl)thiophen-3-yl]oxy}piperidin-3-yl]carbonyl}-1,2,3,4-tetrahydroisoquinoline]"
16,1 to 100,"O=C(c1ncccc1C(F)(F)F)N1CCC[C@@](Oc2csc(C(F)(F)F)c2)(C(=O)N2CCc3cc(Cl)ccc3C2)[C@H]1CCN1CCN(CC2CC2)CC1 [Compound A116, 6-chloro-2-{[(2R,3S)-2-{2-[4-(cyclopropylmethyl)piperazin-1-yl]ethyl}-1-{[3-(trifluoromethyl)pyridin-2-yl]carbonyl}-3-{[5-(trifluoromethyl)thiophen-3-yl]oxy}piperidin-3-yl]carbonyl}-1,2,3,4-tetrahydroisoquinoline]"
17,1 to 100,"COCCN(C)CC[C@H]1N(C(=O)c2ncccc2C(F)(F)F)CCC[C@@]1(Oc1csc(C(F)(F)F)c1)C(=O)N1CCc2cc(Cl)ccc2C1 [Compound A117, 2-[(2R,3S)-3-[(6-chloro-3,4-dihydroisoquinolin-2(1H)-yl)carbonyl]-1-{[3-(trifluoromethyl)pyridin-2-yl]carbonyl}-3-{[5-(trifluoromethyl)thiophen-3-yl]oxy}piperidin-2-yl]-N-(2-methoxyethyl)-N-methylethanamine]"
18,1 to 100,"COCCN1CCN(CC[C@H]2N(C(=O)c3ncccc3C(F)(F)F)CCC[C@@]2(Oc2csc(C(F)(F)F)c2)C(=O)N2CCc3cc(Cl)ccc3C2)CC1 [Compound A118, 6-chloro-2-{[(2R,3S)-2-{2-[4-(2-methoxyethyl)piperazin-1-yl]ethyl}-1-{[3-(trifluoromethyl)pyridin-2-yl]carbonyl}-3-{[5-(trifluoromethyl)thiophen-3-yl]oxy}piperidin-3-yl]carbonyl}-1,2,3,4-tetrahydroisoquinoline]"
19,1 to 100,"CC(C)(C(=O)O)C1CCN(CC[C@H]2N(C(=O)c3ncccc3C(F)(F)F)CCC[C@@]2(Oc2csc(C(F)(F)F)c2)C(=O)N2CCc3cc(Cl)ccc3C2)CC1 [Compound A119, 2-(1-{2-[(2R,3S)-3-[(6-chloro-3,4-dihydroisoquinolin-2(1H)-yl)carbonyl]-1-{[3-(trifluoromethyl)pyridin-2-yl]carbonyl}-3-{[5-(trifluoromethyl)thiophen-3-yl]oxy}piperidin-2-yl]ethyl}piperidin-4-yl)-2-methylpropanoic acid]"
20,101 to 20000,"CCC[C@H]1N(C(=O)c2cnccc2C(F)(F)F)CCC[C@@]1(Oc1csc(C(F)(F)F)c1)C(=O)N1Cc2ccccc2C[C@H]1CO [Compound A120, [(3S)-2-{[(2R,3S)-2-propyl-1-{[4-(trifluoromethyl)pyridin-3-yl]carbonyl}-3-{[5-(trifluoromethyl)thiophen-3-yl]oxy}piperidin-3-yl]carbonyl}-1,2,3,4-tetrahydroisoquinolin-3-yl]methanol]"
21,101 to 20000,"CCC[C@H]1N(C(=O)c2cnccc2C(F)(F)F)CCC[C@@]1(Oc1csc(C(F)(F)F)c1)C(=O)N1CCc2cccc(O)c2C1 [Compound A121, 2-{[(2R,3S)-2-propyl-1-{[4-(trifluoromethyl)pyridin-3-yl]carbonyl}-3-{[5-(trifluoromethyl)thiophen-3-yl]oxy}piperidin-3-yl]carbonyl}-1,2,3,4-tetrahydroisoquinolin-8-ol]"
